≈ marks a conversion by molar mass, not a printed value.
Columns and labels:
dengue virus type 2 [1] = assay: Antiviral activity against DENV2 infected in BHK-21 cells assessed as viral titer by plaque assay; format: functional, organism-based
dengue virus type 2 [2] = assay: Antiviral activity against DENV2 infected in HEK293 cells assessed as reduction in plaque formation; format: functional, organism-based
dengue virus type 2 [3] = assay: Antiviral activity against DENV2 infected in African green monkey Vero cells assessed as reduction in viral replication at 10 uM after 4 days by qRT-PCR analysis relative to control; format: functional; settings: 96 h
dengue virus type 4 [4] = assay: Antiviral activity against DENV4 infected in African green monkey Vero cells assessed as reduction in viral replication at 10 uM after 4 days by qRT-PCR analysis relative to control; format: functional; settings: 96 h
dengue virus type 1 [5] = assay: Antiviral activity against DENV1 infected in African green monkey Vero cells assessed as reduction in viral replication at 10 uM after 4 days by qRT-PCR analysis relative to control; format: functional; settings: 96 h
dengue virus type 3 [6] = assay: Antiviral activity against DENV3 infected in African green monkey Vero cells assessed as reduction in viral replication at 10 uM after 4 days by qRT-PCR analysis relative to control; format: functional; settings: 96 h
Nonstructural protein 5 [7] = target: T1, Nonstructural protein 5 (Dengue virus, UniProt V5TFZ2); assay: Inhibition of DENV2 2'-O-methyltransferase using m7G*pppA-RNA as substrate; set-up: species or system dengue virus type 2
[8] = Inhibition of DENV2 N7-methyltransferase using G*pppA-RNA as substrate; set-up: species or system dengue virus type 2
Nonstructural protein 5 [9] = target: T1, Nonstructural protein 5; assay: Inhibition of DENV3 2'-O-methyltransferase using m7G*pppA-RNA as substrate; set-up: species or system dengue virus type 3
[10] = Inhibition of DENV3 N7-methyltransferase using G*pppA-RNA as substrate; set-up: species or system dengue virus type 3
dengue virus type 2 [11] = assay: Antiviral activity against DENV2 infected in human Huh-7 cells; format: functional, organism-based
dengue virus type 4 [12] = assay: Antiviral activity against DENV4; format: functional, organism-based
dengue virus type 1 [13] = assay: Antiviral activity against DENV1; format: functional, organism-based
dengue virus type 3 [14] = assay: Antiviral activity against DENV3; format: functional, organism-based
dengue virus type 2 [15] = assay: Antiviral activity against DENV2; format: functional, organism-based
dengue virus type 2 [16] = assay: Antiviral activity against DENV2 New Guinea C infected in human Huh7 cells assessed as reduction in viral titer after 3 to 4 days by MTT assay; format: functional, organism-based; settings: Huh-7
dengue virus type 2 [17] = assay: Antiviral activity against DENV2 infected in BHK cells assessed as reduction in viral yield after 24 ro 48 hrs by luciferase reporter gene assay; format: functional, organism-based
Genome polyprotein [18] = target: T2, Genome polyprotein (dengue virus type 2, UniProt P29990); assay: Inhibition of DENV2 NS2B-NS3 serine protease expressed using Benzoyl-Nle-Lys-Arg-Arg-AMC as substrate measured preincubated for 3 mins followed by substrate addition by fluorescence assay
dengue virus type 2 [19] = assay: Antiviral activity against DENV2 infected in BHK-21 cells assessed as viral replication; format: functional, organism-based
Dengue virus = assay: Antiviral activity against dengue virus; format: functional, organism-based
dengue virus type 2 [20] = assay: Antiviral activity against DENV2 infected in BHK-21 cells by MTTR assay; format: functional, organism-based
dengue virus type 2 [21] = assay: Antiviral activity against DENV2 New Guinea C infected in HEK293 cells assessed as reduction in viral infection after 48 hrs by focus forming assay; format: functional, organism-based; settings: HEK293, 48 h
Nonstructural protein 5 [22] = target: T1, Nonstructural protein 5; assay: Inhibition of N-terminal His6-tagged DENV3 NS5 RNA dependent RNA polymerase (272 to 900 residues) after 1 hr by fluorescence assay; set-up: species or system dengue virus type 3
dengue virus type 1 [23] = assay: Antiviral activity against DENV1 Djibouti infected in African green monkey Vero E6 cells after 3 to 4 days by RT-PCR analysis; format: functional, organism-based; settings: Vero C1008
dengue virus type 3 [24] = assay: Antiviral activity against DENV3 Bolivia infected in African green monkey Vero E6 cells after 3 to 4 days by RT-PCR analysis; format: functional, organism-based; settings: Vero C1008
dengue virus type 4 [25] = assay: Antiviral activity against DENV4 Dakar infected in African green monkey Vero E6 cells after 3 to 4 days by RT-PCR analysis; format: functional, organism-based; settings: Vero C1008
dengue virus type 2 [26] = assay: Antiviral activity against DENV2 Martinique infected in African green monkey Vero E6 cells after 3 to 4 days by RT-PCR analysis; format: functional, organism-based; settings: Vero C1008
Genome polyprotein [27] = target: T2, Genome polyprotein; assay: Inhibition of His-tagged DENV2 NS2B-NS3 serine protease expressed in Escherichia coli BL21 using Boc-Gly-Arg-Arg-7-amino-4-methylcoumarin as substrate measured after 10 mins by fluorometric assay
dengue virus type 2 [28] = assay: Antiviral activity against DENV2 infected in human Huh7 cells by qRT-PCR analysis; format: functional, organism-based; settings: Huh-7

## CCN(CC)CCNC(=O)c1c(C)[nH]c(/C=C2\C(=O)Nc3ccc(F)cc32)c1C [SUNITINIB]
Dengue virus type 2 [1]
  EC50: 1.96 µM

## Cc1cnc(NC(=O)c2cc(S(=O)(=O)N(C)C)ccc2N2CCCC2)s1
Dengue virus type 2 [2]
  EC50: 0.85 µM

## N#C/C(=C\c1ccc(-c2ccc(C(=O)O)cc2)s1)c1nc2cc(Cl)ccc2[nH]1
Dengue virus type 2 [3]
  inhibition at 10 µM: 50 to 82%
Dengue virus type 4 [4]
  inhibition at 10 µM: 50 to 82%
Dengue virus type 1 [5]
  inhibition at 10 µM: 50 to 82%
Dengue virus type 3 [6]
  inhibition at 10 µM: 50 to 82%

## CC1=C(Nc2c(C)cc(O)cc2O)C(=O)C=c2oc3c(c21)C(C)=C(Nc1c(C)cc(O)cc1O)C(=O)C=3
Nonstructural protein 5 [7]
  IC50: 2.3 to 21 µM
[8]
  IC50: 28 to 32 µM
Nonstructural protein 5 [9]
  IC50: 2.3 to 21 µM
[10]
  IC50: 28 to 32 µM

## O=c1c2cc(O)c(O)cc2oc2cc(O)c([C@@H]3O[C@H](CO)[C@@H](O)[C@H](O)[C@H]3O/C=C/c3ccccc3)c(O)c12
Dengue virus type 2 [11]
  EC50: 3.5 µg/mL (≈ 6.67 µM)

## Oc1cccc(Nc2nc(NCc3ccc(-c4ccccc4)cc3)nc3nc[nH]c23)c1
Dengue virus type 4 [12]
  EC50: 1.38 to 2.19 µM
Dengue virus type 1 [13]
  EC50: 1.38 to 2.19 µM
Dengue virus type 3 [14]
  EC50: 1.38 to 2.19 µM
Dengue virus type 2 [15]
  EC50: 2.8 µM

## COc1cc(/C(C#N)=C/c2cc3ccccc3s2)cc(OC)c1OC
Dengue virus type 2 [16]
  EC50: 7.22 µM

## CCN(CC)CCCC(C)Nc1c2ccc(Cl)cc2nc2ccc(OC)cc12 (stereo not given) [QUINACRINE]
Dengue virus type 2 [17]
  EC50: 5.3 µM

## CC(C)=CCC/C(C)=C/C=O [CITRAL]
Dengue virus type 2 [15]
  IC50: 31 µM

## O=c1c2cc(O)c(O)cc2oc2cc(O)c([C@@H]3O[C@H](CO)[C@@H](O)[C@H](O)[C@H]3O/C=C/c3ccc(O)c(O)c3)c(O)c12
Dengue virus type 2 [11]
  EC50: 4.1 µg/mL (≈ 7.37 µM)

## CC(C)CC(=O)c1c(O)c2c(c3c(-c4ccccc4)cc(=O)oc13)OC(C)(C)C=C2 [ISOMAMMEIGIN]
Dengue virus type 2 [15]
  EC50: 2.6 to 10.2 µM

## Cc1ccc(C2=NC(=O)/C(=C/c3cc(O)c(O)c(Br)c3)S2)cc1
Genome polyprotein [18]
  IC50: 2.94 to 4.06 µM
Dengue virus type 2 [19]
  EC50: 6.9 µM

## O=C1C=C2CCN3Cc4cc5c(cc4[C@H]([C@@H]1O)[C@@H]23)OCO5
Dengue virus
  EC50: 0.4 to 1.8 µM

## C/C=C(\C)C(=O)O[C@@H]1CC[C@]2(C)[C@H]3CC[C@@]4(C)[C@@H]([C@@H]5C[C@H]([C@@H]6OC6(C)C)O[C@H]5O)CC[C@]4(C)C3=CC[C@H]2C1(C)C
Dengue virus type 2 [20]
  EC50: 3 µM

## O[C@H]1[C@H]2c3cc4c(cc3CN3CCC(=C[C@@H]1O)[C@H]23)OCO4 [LYCORINE]
Dengue virus
  EC50: 0.4 to 1.8 µM

## Nc1c(C(=O)Nc2nc(-c3ccccc3)cs2)sc2nc3c(cc12)CN(c1ccccc1)CC3
Dengue virus type 2 [21]
  IC50: 0.025 µM

## C=C1CC/C=C(\C)CC[C@@H]2[C@@H]1CC2(C)C [BETA-CARYOPHYLLENE]
Dengue virus type 2 [15]
  IC50: 22 µM

## O=C(N[C@@H](Cc1ccc(O)cc1)C(=O)O)c1cc(-c2ccccc2)c(=O)n2c1sc1ccc(OC3CCCCC3)cc12
Nonstructural protein 5 [22]
  IC50: 1.5 µM
Dengue virus type 1 [23]
  IC50: 6.8 to 15 µM
Dengue virus type 3 [24]
  IC50: 6.8 to 15 µM
Dengue virus type 4 [25]
  IC50: 6.8 to 15 µM
Dengue virus type 2 [26]
  IC50: 6.8 to 15 µM

## O=C(O)c1cc2sc(NC(=O)c3ccccc3Sc3ccc(C(F)(F)F)cc3)nc2cc1O
Genome polyprotein [27]
  IC50: 66 µM

## CC[C@H]1C[C@H]2C[N@]3CCc4c([nH]c5ccc(OC)cc45)[C@](C(=O)OC)(C2)[C@H]13
Dengue virus type 2 [15]
  EC50: 2.6 to 10.2 µM

## COc1cc(/C(C#N)=C/c2cc3ccccc3[nH]2)cc(OC)c1OC
Dengue virus type 2 [16]
  EC50: 8.12 µM

## CC(=O)O[C@H]1[C@H]2c3cc4c(cc3CN3CCC(=C[C@@H]1O)[C@H]23)OCO4
Dengue virus
  EC50: 0.4 to 1.8 µM

## CN1CCN(CCCN2c3ccccc3Sc3ccc(Cl)cc32)CC1 [PROCHLORPERAZINE]
Dengue virus type 2 [15]
  EC50: 0.088 µM

## CC(=O)O[C@@H]1C(=O)C=C2CCN3Cc4cc5c(cc4[C@H]1[C@@H]23)OCO5
Dengue virus
  EC50: 0.4 to 1.8 µM

## CNCCC(Oc1ccc(C(F)(F)F)cc1)c1ccccc1 (stereo not given) [FLUOXETINE]
Dengue virus type 2 [28]
  IC50: 0.38 µM

## CC(C)C[C@@H]1NC(=O)[C@@H]2C[C@@H](O)CN2C1=O
Dengue virus
  EC50: 11.2 to 21.2 µM

Source: ChEMBL document CHEMBL4396891, “Recent update on anti-dengue drug discovery” (Eur J Med Chem, 2019)
